Series [1] is described as follows: Antifeedant activity in Anthrenocerus australis larvae assessed as loss in wool weight at 0.025% w/w relative to control. The class given is functional.
The nature of series [2]: Cytotoxicity against monkey BSC cells assessed as zone of inhibition at 30 ug/disc. The class given is cell-based, Macaca mulatta. Particulars: rhesus monkey.
For series [3], the system named is Eurhopalus australis. The series is described as follows: Survival of Anthrenocerus australis larvae at 0.025% w/w relative to control. Type of series: functional.
Series [4] can be described thus: Antifeedant activity in Anthrenocerus australis larvae assessed as loss in wool weight at 0.05% w/w relative to control. Type of series: functional.
In series [5] the test system is Tineola bisselliella. The series is described as follows: Survival of Tineola bisselliella larvae at 0.1% w/w relative to control. The class given is functional.
In series [6] the test system is Eurhopalus australis. The series is described as follows: Survival of Anthrenocerus australis larvae at 0.1% w/w relative to control. The class given is functional.
The subject of series [7] is Eurhopalus australis. The series is described as follows: Survival of Anthrenocerus australis larvae at 0.05% w/w relative to control. The class given is functional.
Series [8] can be described thus: Antifeedant activity in Tineola bisselliella larvae assessed as loss in wool weight at 0.1% w/w relative to control. Type of series: functional.
Series [9] can be described thus: Antifeedant activity in Anthrenocerus australis larvae assessed as loss in wool weight at 0.1% w/w relative to control. Type of series: functional.
Series [10] has as its system Tineola bisselliella. The series is described as follows: Survival of Tineola bisselliella larvae at 0.01% w/w relative to control. The class given is functional.
The subject of series [11] is Eurhopalus australis. The series is described as follows: Survival of Anthrenocerus australis larvae at 0.01% w/w relative to control. The class given is functional.
The nature of series [12]: Antifeedant activity in Anthrenocerus australis larvae assessed as loss in wool weight at 0.01% w/w relative to control. Type of series: functional.
For series [13], the system named is Tineola bisselliella. The series is described as follows: Antifeedant activity in Tineola bisselliella larvae assessed as loss in wool weight at 0.01% w/w relative to control. Type of series: functional.
Series [14] can be described thus: Cytotoxicity against monkey BSC cells assessed as zone of inhibition at 60 ug/disc. The class given is cell-based, Macaca mulatta. The conditions noted are these: rhesus monkey.

With `CC(=O)O[C@H]1O[C@@H]2C=C(C)[C@H]3C[C@@H]2[C@@]13CC(=O)C=C(C)C` [CLAVIGERIN B], the Activity in series [1] is -34%; in [4], -79%; in series [8], -74%; in series [9] it was -78%. Further, the “inhibition zone (IZ)” value in [2] was 1 mm. Moreover, the survival at 0.025 % strength in the series with Eurhopalus australis [3] was determined as 98%. In addition, the survival at 0.1 % strength with Tineola bisselliella [5] came out at 27%; in the series on Eurhopalus australis [6], 95%. The compound also gave a survival at 0.05 % strength in the series with Eurhopalus australis [7] of 98%.
In the case of `CC1(C)C(C=C(Cl)Cl)C1C(=O)OCc1cccc(Oc2ccccc2)c1` (stereo not drawn) [PERMETHRIN], the survival at 0.01 % strength in the series with Tineola bisselliella [10] came to 0%; with Eurhopalus australis [11], 96%. Also, the Activity (in series [12]; in the series on Tineola bisselliella [13]) was -100% each time.
For `CC(=O)O[C@H]1O[C@@H]2C=C(C)[C@H]3C[C@@H]2[C@@]13CC(=O)CC(C)C` [CLAVIGERIN C], the Activity was -50% in [1], -62% in series [4], -95% in series [8] and -86% in series [9]. In addition, the “inhibition zone (IZ)” value in [2] is above 4 mm. This compound gave a survival at 0.025 % strength in the series on Eurhopalus australis [3] of 98%. In addition, the survival at 0.1 % strength came out at 5% in the series with Tineola bisselliella [5] and 96% in the series with Eurhopalus australis [6]. Also, in the series on Eurhopalus australis [7], the survival at 0.05 % strength was 97%.
Regarding `CO[C@H]1O[C@@H]2C=C(C)[C@H]3C[C@@H]2[C@@]13CC(=O)CC(C)C` [METHOXY CLAVIGERIN C], the “inhibition zone (IZ)” value in [14] is 1 mm. This compound also registered a survival at 0.1 % strength in the series on Tineola bisselliella [5] of 86%. In addition, the Activity in [8] is -12%.
As for `CC(=O)OC(C(=O)C=C(C)C)[C@]12[C@@H](OC(C)=O)O[C@@H]3C=C(C)[C@H]1C[C@@H]32` (stereo partly drawn) [CLAVIGERIN A], the “inhibition zone (IZ)” value in [2] turned out to be 1 mm. In the series with Tineola bisselliella [5], this compound came in with a survival at 0.1 % strength of 95%. Also, the Activity in series [8] amounted to 2%.

For the origin of these results see ChEMBL document CHEMBL1144787, “Insect antifeedant sesquiterpene acetals from the liverwort Lepidolaena clavigera. 2. structures, artifacts, and activity” (J Nat Prod, 2008).
